# Measured values from patent US9034308B2, “Anti-sensitivity, anti-caries, anti-staining, anti-plaque ultra-mild oral hygiene agent” (RHODIA OPERATIONS, priority 2003, dated 2015).
# Key:
# [1] = Interaction with calcium phosphates (foaming); assay type: physicochemical; conditions: 1 Kg powder added to 1800 ml of 10% solution, pH ~7
# Experimental: Disappearance of foaming was indicative of loss of surfactant from bulk solution. Increased hydrophobicity of the calcium phosphate was indicative of surfactant adsorption onto the solid particles.
# A typical calcium based abrasive tooth paste formulation was prepared using dibasic calcium phosphate, dihydrate as the abrasive and conventional mixing techniques as shown below. […] This finding was in contrast to an earlier patent discussed above (U.S. Pat. No. 4,152,421) and was presumably so because of the strong interaction of the potassium dodecyl phosphate (1.2%) with the calcium phosphate abrasive.
# [2] = 1% solution, in vitro; cited from earlier work
# [3] = 14C labeling, in the presence of saliva; cited from earlier work
Compound,amount bonded to 40 mg HA [3],also measured
CCCCCCCCCCCCOP(=O)([O-])[O-].[K+].[K+] [potassium dodecyl phosphate],–,"foaming of the solution after addition of dibasic calcium phosphate, dihydrate [1]: significantly reduced"
dioctyl phosphate,–,rate of calcium demineralization on treated teeth [2]: lower rate of calcium demineralization
dodecyl-3 EO monoalkyl phosphate,0.20 to 0.35 mg,–
hexadecyl-8 EO ethoxylate,< 0.05 mg,–
